{"source": "patent US20200069583A1", "about": "“IN SITU PHASE CHANGE GEL SUSTAINED-RELEASE SYSTEM FOR SMALL MOLECULE DRUG AND PREPARATION METHOD THEREOF” (SICHUAN UNIVERSITY, priority 2017, published 2020)", "key": {"[1]": {"test": "Cmax of other small molecule drugs in plasma, preparation versus original drug solution (Experimental Example 7)", "format": "in vivo", "settings": "male SD rats, subcutaneous; for Cmax: Sprague-Dawley (SD), rat, sc; for Phospholipid Span sustained release preparation Cmax: drug in preparation made by prescription and method of Example 1", "method": "In vivo experiments in animals were used to investigate the effects of other small molecule drugs on inhibiting burst release. […] The obtained phospholipid Span sustained release preparation and original drug solution of the other small molecule drugs (each drug was formulated with water, ethanol or DMSO for injection, depending on the specific solubility) were injected subcutaneously into male SD rats, whose blood was taken at regular intervals. The C. of the small molecule drugs in plasma was determined by high-performance liquid chromatography-mass spectrometry (LC-MS/MS), thereby investigating the effect on inhibiting burst release."}, "[2]": {"test": "In vivo pharmacokinetics of 2,4-dinitrophenol preparations, subcutaneous (Experimental Example 4)", "parameters": "species or system male SD rats", "method": "The product of Example 1 was injected subcutaneously into male SD rats, whose blood was taken at regular intervals. The content of 2,4-dinitrophenol in plasma was determined by high-performance liquid chromatography-mass spectrometry (LC-MS/MS), thereby investigating the sustained release effect thereof.\n200-220 g of SD rats were randomly divided into three groups, solution group (Test Example 4 in Experimental Example 1), phospholipid Span gel group (Example 1), and high-concentration phospholipid gel group (prepared according to patent CN102526753A). There were 6 rats in each group and they were injected subcutaneously at the dosage of 12.5 mg/kg. At the scheduled time point, blood was taken from the rat eye and placed in a heparin sodium anticoagulated test tube. After the sample was processed, the blood concentration was measured by LC-MS/MS injection.\nThe fomulation of the high-concentration phospholipid gel sustained release preparation (patent CN102526753A) is as follows: […]"}, "[3]": {"test": "In vivo pharmacokinetics of dabigatran etexilate preparations, subcutaneous (Experimental Example 5)", "settings": "male, Sprague-Dawley (SD), rat, plasma, sc, SD rats, solution 11.4 mg/kg, gels 80 mg/kg", "method": "At the scheduled time point, blood was taken from the rat eye and placed in a heparin sodium anticoagulated test tube. After the sample was processed, the blood concentration was measured by LC-MS/MS."}, "[4]": {"test": "Blood concentration of 2,4-dinitrophenol in rats after subcutaneous dosing, surfactant comparison (Experimental Example 1)", "settings": "Sprague-Dawley (SD), rat, in vivo, sc, 12.5 mg/kg 2,4-dinitrophenol, LC-MS/MS, surfactant 3.5 g varied", "method": "The following test was carried out in accordance with the preparation method of Example 1, except that the Span in the prescription of Example 1 was replaced with glyceryl dioleate (Test Example 1), Tween (Test Example 2) and sucrose acetate isobutyrate (Test Example 3). At the same time, the original drug solution group was designed (Test Example 4, 50 mg of the drug was dissolved in 10 mL of phosphate buffer (pH=7.6), and a solution of the same concentration as in Example 1 was prepared).\n200-220 g of SD rats were randomly divided into five groups, 6 rats in each group, and were administered subcutaneously with 12.5 mg/kg dosage of 2,4-dinitrophenol (Example 1, Test Example 1, Test Example 2, Test Example 3 and Test Example 4). At the scheduled time point, blood was taken from the rat eye and placed in a heparin sodium anticoagulated test tube. After the sample was processed, the blood concentration was measured by LC-MS/MS."}, "[5]": {"settings": "drug in preparation made by prescription and method of Example 1, read-out: Phospholipid Span sustained release preparation Cmax"}, "[6]": {"settings": "original drug solution in water, ethanol or DMSO for injection"}, "[7]": {"settings": "in vivo, drug in preparation made by prescription and method of Example 1, read-out: Phospholipid Span sustained release preparation Cmax"}}, "note": "Counter-ions that a name gives are not always drawn.", "data": [{"compound": "NC(=O)N1c2ccccc2C=Cc2ccccc21", "note": "[Carbamazepine]", "values": [{"measurement": "Cmax", "setting": "[1]; [5]", "value": "4460 ± 570", "unit": "ng/mL"}]}, {"compound": "C/C=C1\\[C@H]2C=C(C)C[C@]1(N)c1ccc(=O)[nH]c1C2", "note": "[Huperzine A]", "values": [{"measurement": "Phospholipid Span sustained release preparation Cmax", "setting": "[1]", "value": "1330 ± 220", "unit": "ng/mL"}, {"measurement": "Original drug Cmax", "setting": "[1]; [6]", "value": "13870 ± 2860", "unit": "ng/mL"}]}, {"compound": "COCCOC(=O)C1=C(C)NC(C)=C(C(=O)OC(C)C)C1c1cccc([N+](=O)[O-])c1", "note": "(stereo not shown) [Nimodipine]", "values": [{"measurement": "Cmax", "setting": "[1]; [5]", "value": "1510 ± 670", "unit": "ng/mL"}]}, {"compound": "CN(C)C(=N)N=C(N)N", "note": "[Metformin hydrochloride]", "values": [{"measurement": "Cmax", "setting": "[1]; [5]", "value": "820 ± 90", "unit": "ng/mL"}]}, {"compound": "C[C@@H]1C[C@H]2[C@@H]3CCC4=CC(=O)C=C[C@]4(C)[C@@]3(F)[C@@H](O)C[C@]2(C)[C@@]1(O)C(=O)CO", "note": "[Dexamethasone]", "values": [{"measurement": "Cmax", "setting": "[1]; male, drug in preparation made by prescription and method of Example 1, read-out: Phospholipid Span sustained release preparation Cmax", "value": "130 ± 50", "unit": "ng/mL"}, {"measurement": "Cmax", "setting": "[1]; male, original drug solution in water, ethanol or DMSO for injection, read-out: Original drug Cmax", "value": "530 ± 120", "unit": "ng/mL"}]}, {"compound": "CCCCCCOC(=O)NC(=N)c1ccc(NCc2nc3cc(C(=O)N(CCC(=O)OCC)c4ccccn4)ccc3n2C)cc1", "note": "[Solution group, dabigatran etexilate]", "values": [{"measurement": "AUC (0→∞)", "setting": "[2]; SD rats, subcutaneous, 12.5 mg/kg, 2,4-dinitrophenol", "value": "10.19 ± 1.11", "unit": "mg·days/L"}, {"measurement": "AUC(0-t)", "setting": "[3]", "value": "1970 ± 474", "unit": "ng·h/mL"}, {"measurement": "Cmax", "setting": "[3]", "value": "244 ± 31.5", "unit": "ng/mL"}, {"measurement": "Tmax", "setting": "[3]", "value": "3.18 ± 0.21", "unit": "h"}, {"measurement": "half-life", "setting": "[3]", "value": "5.21 ± 0.83", "unit": "h"}, {"measurement": "MRT last", "setting": "[3]; read-out: MRT0-t", "value": "7.86 ± 1.14", "unit": "h"}]}, {"compound": "CCC1(c2ccccc2)C(=O)NC(=O)NC1=O", "note": "[Phenobarbital]", "values": [{"measurement": "Cmax", "setting": "[1]; [7]", "value": "2510 ± 680", "unit": "ng/mL"}]}, {"compound": "NS(=O)(=O)c1cc2c(cc1C(F)(F)F)NCNS2(=O)=O", "note": "[Hydroflumethiazido]", "values": [{"measurement": "Phospholipid Span sustained release preparation Cmax", "setting": "[1]", "value": "870 ± 520", "unit": "ng/mL"}, {"measurement": "Original drug Cmax", "setting": "[1]; [6]", "value": "5780 ± 2060", "unit": "ng/mL"}]}, {"compound": "COc1cccc2c1C(=O)c1c(O)c3c(c(O)c1C2=O)C[C@@](O)(C(=O)CO)C[C@@H]3O[C@H]1C[C@H](N)[C@H](O)[C@H](C)O1", "note": "[Doxorubicin]", "values": [{"measurement": "Cmax", "setting": "[1]; [5]", "value": "30 ± 10", "unit": "ng/mL"}]}, {"compound": "Cn1c(=O)c2[nH]cnc2n(C)c1=O", "note": "[theophylline]", "values": [{"measurement": "Cmax", "setting": "[1]; [7]", "value": "1540 ± 320", "unit": "ng/mL"}]}, {"compound": "CC(=O)Oc1ccccc1C(=O)O", "note": "[Aspirin]", "values": [{"measurement": "Cmax", "setting": "[1]; [5]", "value": "14600 ± 3120", "unit": "ng/mL"}]}, {"compound": "O=[N+]([O-])c1ccc(O)c([N+](=O)[O-])c1", "note": "[Test Example4, 2,4-dinitrophenol]", "values": [{"measurement": "Cmax", "setting": "[4]", "value": 54500, "unit": "ng/mL"}, {"measurement": "Cmax", "setting": "[2]; male, Sprague-Dawley (SD), rat, in vivo, sc, 12.5 mg/kg, rats, subcutaneous, same dose, 2,4-dinitrophenol", "value": "~54500", "unit": "ng/mL"}, {"measurement": "Duration of drug release", "setting": "[2]; rats, same dose, original drug group", "value": 24, "unit": "h"}]}]}
